Assay results from US11077184B2 (priority 2011, dated 2021).
Entries after “also recorded” stand apart in the source; their conditions may differ.

What was measured:
[1] = tested on: Purified B cells from C57BL6 mice; assay type: cell-based
murine DCs = conditions: cited from earlier work

Substance	proliferation of B cells ([3H]-thymidine incorporation, CPM) [1]	pro-inflammatory cytokines IL-12p40, IL-6 and TNFα produced (murine DCs)
tripalmitoyl-S-glyceryl-cysteine [Pam3Cys]	can induce potent proliferation of B cells; also recorded: capable of inducing potent proliferation of B cells	high levels
Poly I:C	does not	–
